Measurements reported in patent US20160129005A1, “ADENINE DERIVATIVES HAVING IMMUNOMODULATING ANTI-INFLAMMATORY AND ANALGESIC ACTIVITY” (MEDESTEA RESEARCH & PRODUCTION S.p.A., priority 2011, published 2016).

What was measured:
[1] = tested on: NOD/scid mice; experiment: Graft-versus-host disease (human PBMCs); assay type: in vivo, mouse
Method: Two groups of NOD/scid mice of 8-10 weeks were used, and were kept in cages under sterile flow at an SPF animal facility.
On day −1, to avoid residual activity of natural killer cells, the mice were administered an anti-NK antibody intraperitoneally (TMβ-1.1 mg/mouse). On day 0 the mice were irradiated (300 rad) and they were administered, intraperitoneally, 20×10^6 human peripheral blood mononuclear cells (PBMCs), previously isolated. The PBMCs are isolated by means of buffy coat from blood from healthy donors.
On the same day, the mice were treated with […] intraperitoneally at two doses, 10 mg/kg and 20 mg/kg. The treatment was repeated daily for 15 days.
The mice were checked regularly 3 times a week to monitor the weight loss (also as independent variable) and signs of GvHD using a clinical score (0 for weight loss <10%, 1 for 10%-20%, 2 for 20%; hunching (0-2), reactivity (0-2), appearance of the fur (0-2), and skin integrity (0-2)), with a maximum score of 10.

[2] = tested on: mice; experiment: Asthma: ovalbumin sensitization and aerosol challenge, BALF; assay type: in vivo, mouse; settings: 6 mg/kg intratracheal 30 minutes before OA aerosol; FIG. 38
Method: Sensitization of mice with ovalbumin (OA) adsorbed on aluminium hydroxide, administered intraperitoneally on day 0 and day 7, can cause a similar asthmatic manifestation when the mouse is subsequently (days 19-21) challenged with OA aerosol. The mice were anaesthetized 30 minutes before the OA aerosol and the treated group received an intratracheal injection of […] 6 mg/kg.
Twenty-four hours after the last administration of OA, a bronchoalveolar lavage was carried out with 3×1 ml of PBS free from calcium and magnesium ions.

[3] = tested on: C57/Bl/6 mice; experiment: COPD: acute cigarette smoke exposure, BALF; assay type: in vivo, mouse; settings: 6 mg/kg intratracheal; FIG. 39
Method: C57/Bl/6 mice aged 6-8 weeks were exposed to room air or to the smoke of 5 cigarettes/day (Virginia brand with filter; tar 12 mg and nicotine 0.9 mg) for 3 consecutive days. For exposure to smoke, a special cage was used, which permits air exchange with the exterior or with the device that contains the cigarette only due to a mechanical fan, which also allows the smoke to be diluted with the external air (1:8) in order to simulate the situation of a smoker.
Starting on the fourth day, the mice were anaesthetized 30 minutes before exposure to the smoke and were administered 6 mg/kg of […] or vehicle by intratracheal injection. The mice were sacrificed one hour after the end of the treatment and a bronchoalveolar lavage was carried out.

[4] = tested on: female NZB/NZW F1 mice; experiment: Systemic lupus erythematosus model; assay type: in vivo, mouse
Method: Systemic lupus erythematosus (SLE) is a chronic autoimmune disease that generally begins with arthritis or arthralgia. Haematuria or proteinuria may be the only renal symptom, however, lupus glomerulonephritis may lead to acute or terminal renal failure. An experimental model of SLE consists of female F1 mice derived from crossing of the NZB strain with NZW. To evaluate the possible effect of […] in SLE, we treated female NZB/NZW F1 mice with 0.25 mg of […] or carrier 5 days a week for six weeks, starting the treatment when the mice had developed anti-DNA antibodies.

[5] = tested on: Swiss CD1 mice; experiment: CFA thermal hyperalgesia, synergy with opioids
Method: We compared the activity of […] with that of the opioids to study its analgesic effect.
Mice of the Swiss CD1 type were given a single intraplantar injection of 30 microlitres of complete Freund adjuvant (CFA) in the right plantar pad. Intraperitoneal injection of […] and/or of morphine (morphine chlorhydrate, Molteni) was administered 24 hours after injection of CFA according to the following scheme:
1. […] 7.5 mg/kg; 2. […] 10 mg/kg; 3. […] 200 mg/kg; 4. […] 50 mg/kg; 5. Morphine 0.4 mg/kg; 6. Morphine 2.5 mg/kg; 7. Morphine 1 mg/kg; 8. Morphine 0.4 mg/kg; 9. Morphine 1 mg/kg+[…] 10 mg/kg; 10. Morphine 0.4 mg/kg+[…] 10 mg/kg; 11. Morphine 1 mg/kg+[…] 10 mg/kg; 12. Morphine 0.4 mg/kg+[…] 10 mg/kg; 13. Morphine 4 mg/kg.
Groups 9-11 and 10-12 have the same doses respectively; they were repeated to confirm the results.
Thermal hyperalgesia was assessed using the Ugo Basile apparatus (Comerio, Italy).
The test was carried out before (baseline values) injection of CFA, after injection of CFA and 0.5, 1, 2, 3, 6 and 12 hours after injecting the drug in the inflamed pad.

[6] = tested on: Tg2576 mice; experiment: Alzheimer's transgenic murine model Tg2576: behavioural tests and β-amyloid plaques; assay type: in vivo, mouse; settings: 4 and 15 mg/kg i.p. daily, 6th to 13th month
Method: In the transgenic murine model Tg2576 there is no loss of neurons, but there is neuronal deficit and accumulation of β-amyloid plaques. The production of peptides begins to increase rapidly starting from the 6th month of age, accompanied by a progressive cognitive decline. Around the 7th to 8th month, the first plaques develop, which are then diffuse at the 12th month.
The mice were treated with […] at 4 and at 15 mg/kg i.p. daily starting from the 6th month of age up to the 13th. Between the 9th and 10th month and between the 12th and 13th month the mice were submitted to behavioural tests, at the 13th month they were sacrificed and immunohistochemical analyses were performed on brain samples to verify modulation of the β-amyloid plaques.

[7] = tested on: lymphopenic mice with deletion of cd3ε; experiment: Chronic intestinal inflammation by transfer of naive CD4 cells; assay type: in vivo, mouse
Text: To study the effect of […] in idiopathic inflammatory diseases of the intestine, such as Crohn's disease and ulcerative colitis, we used lymphopenic mice with deletion of cd3ε. T lymphocytes are not present in these animals, and transfer of naive CD4 cells causes chronic intestinal inflammation. The simultaneous transfer of regulatory T cells (Treg) CD4^+CD25^+ […] the onset of the disease. […] Compared to mice reconstituted with naive CD4 and Treg cells (healthy controls), mice reconstituted with naive CD4 cells and treated with carriers show a severe oedematous-haemorrhagic picture of the colon with splenomegaly and lymphadenomegaly. […] The accumulation of Alcian-positive mucus filaments is visible inside the lumen of the cryptae (arrowheads). In the mice injected with CD4 cells and treated with carriers, muciparous goblet cells have completely disappeared along the cryptae. The cryptae are markedly hyperplasic with intensive cellular crowding, stratification, obliteration of the lumen (arrowheads), and a high frequency of mitotic cells is encountered (arrows). […] The cryptae are moderately hyperplasic and mucus filaments can be seen inside the lumen of the cryptae (arrowheads).

[8] = 60 days from the end of treatment

In the case of `C=C(C=O)OC(C=O)n1cnc2c(N)ncnc21` (stereo not drawn) [2-[1-(6-aminopurin-9-yl)-2-oxoethoxy]prop-2-enal], the “resistance to GvHD (clinical score)” value ([1]; 10 mg/kg and 20 mg/kg i.p. daily for 15 days, FIG. 37) is reported as “statistically significant, dose-dependent resistance to GvHD”, the survival ([1]; 10 and 20 mg/kg i.p., untreated all die within 50 days) is reported as “reaching three months from transplant” and the “immune cells and mediators of inflammation in BALF” value [2] is reported as “Significantly lower levels of immune cells and mediators of inflammation”. The “immune cells and messengers of inflammation in BALF” value [3] was “slight finding of immune cells and of messengers of inflammation”, the proteinuria ([4]; 0.25 mg 5 days a week for six weeks, two months following the treatment) was “did not appear” and the “deposition of immune complexes (histopathological score)” value [4, 8] was “significant decrease”. The “glomerular proliferation (histopathological score)” value [4, 8] was “significant decrease”, the “lymphocyte infiltration (histopathological score)” value [4, 8] was “significant decrease” and the “values of nociception (thermal hyperalgesia)” value ([5]; IMMUFLAM alone i.p., all the doses tested) was “brings back the values of nociception to the baseline values”. The “obsessive-compulsive disorders (behaviour)” value ([5]; mice treated with IMMUFLAM alone) was “did not display any behaviour of this kind”, the “score obtained in moving to Y (Y-maze test)” value [6] was “very encouraging” and the “finding and climbing onto the platform, hidden or visible (water maze test)” value ([6]; vs vehicle) was “significantly faster than the control”. The “colon sections stained with Alcian-PAS” value ([7]; mice injected with CD4 cells) was “muciparous goblet cells positive to Alcian-PAS are identifiable along the cryptae”, the “macroscopic appearance of colon, spleen and lymph nodes” value ([7]; treatment two weeks after injection of naive CD4 cells, FIG. 31) was “dramatic improvement of the inflammation of the colon” and the “histological scores (0-4, Asseman)” value ([7]; vs carriers, no significant difference to healthy control) was “significant improvement of the lesions”.
